# Source: ChEMBL document CHEMBL6153094, “Rationally designed highly amphipathic antimicrobial peptides demonstrating superior bacterial selectivity relative to the corresponding α-helix peptide” (Eur J Med Chem, 2025)
# The source made the active and inactive calls. The rule behind the calls is not given here.
# How the values were obtained:
# Bacillus subtilis = test: Antimicrobial activity against Bacillus subtilis ATCC 23857 assessed as inhibition of visible bacterial growth incubated for 18 hrs by broth microdilution method; format: functional
# Staphylococcus aureus [1] = test: Antimicrobial activity against methicillin-drug resistant Staphylococcus aureus clinical isolate 48 assessed as concentration required to eliminate 90% bacteria incubated for 18 hrs by broth-microdilution method; format: functional
# Staphylococcus aureus [2] = test: Antimicrobial activity against methicillin-drug resistant Staphylococcus aureus clinical isolate 74 assessed as concentration required to eliminate 90% bacteria incubated for 18 hrs by broth-microdilution method; format: functional
# Escherichia coli [3] = test: Antimicrobial activity against multi-drug resistant Escherichia coli clinical isolate 780 assessed as concentration required to eliminate 90% bacteria incubated for 18 hrs by broth-microdilution method; format: functional
# Escherichia coli [4] = test: Antimicrobial activity against multi-drug resistant Escherichia coli clinical isolate 804 assessed as concentration required to eliminate 90% bacteria incubated for 18 hrs by broth-microdilution method; format: functional
# Pseudomonas aeruginosa [5] = test: Antimicrobial activity against multi-drug resistant Pseudomonas aeruginosa clinical isolate 86 assessed as concentration required to eliminate 90% bacteria incubated for 18 hrs by broth-microdilution method; format: functional
# Pseudomonas aeruginosa [6] = test: Antimicrobial activity against multi-drug resistant Pseudomonas aeruginosa clinical isolate 124 assessed as concentration required to eliminate 90% bacteria incubated for 18 hrs by broth-microdilution method; format: functional
# Staphylococcus aureus [7] = test: Antibacterial activity against Staphylococcus aureus ATCC 25923 assessed as inhibition of bacterial growth at 2 times of MIC incubated for 18 hrs in presence of <2 microg/ml of chymotrypsin by absorbance based assay; format: functional, organism-based
# Staphylococcus aureus [8] = test: Bactericidal activity against Staphylococcus aureus ATCC 25923 at 2 times of MIC incubated for 18 hrs in presence of 20 microg/ml of trypsin by absorbance based assay; format: functional, organism-based
# Staphylococcus aureus [9] = test: Bactericidal activity against Staphylococcus aureus ATCC 25923 at 2 times of MIC incubated for 18 hrs in presence of 20 microg/ml of chymotrypsin by absorbance based assay; format: functional, organism-based
# Staphylococcus aureus [10] = test: Antibacterial activity against Staphylococcus aureus ATCC 25923 assessed as fold change in MIC incubated for 18 hrs in presence of NaCl by Mueller-Hinton broth based assay; format: functional
# Staphylococcus aureus [11] = test: Antibacterial activity against Staphylococcus aureus ATCC 25923 incubated for 18 hrs in presence of ZnCl2 by Mueller-Hinton broth based assay; format: functional, organism-based
# Staphylococcus aureus [12] = test: Antibacterial activity against Staphylococcus aureus ATCC 25923 incubated for 18 hrs in presence of FeCl3 by Mueller-Hinton broth based assay; format: functional, organism-based
# Staphylococcus aureus [13] = test: Antibacterial activity against Staphylococcus aureus ATCC 25923 assessed as fold change in MIC incubated for 18 hrs in presence of 2.5% serum by broth microdilution method; format: functional
# Staphylococcus aureus [14] = test: Antibacterial activity against Staphylococcus aureus ATCC 25923 assessed as fold change in MIC incubated for 18 hrs in presence of 5% serum by broth microdilution method; format: functional
# Staphylococcus aureus [15] = test: Antibacterial activity against Staphylococcus aureus ATCC 25923 incubated for 18 hrs in presence of 10% serum by broth microdilution method; format: functional, organism-based
# Pseudomonas aeruginosa [16] = test: Antibiofilm activity in Pseudomonas aeruginosa ATCC 27853 assessed as inhibition of biofilm formation at 1 times of MIC incubated for 24 hrs by crystal violet staining based analysis relative to control; format: functional
# Staphylococcus aureus [17] = test: Antibiofilm activity in Staphylococcus aureus ATCC 25923 assessed as inhibition of biofilm formation at 1 times of MIC incubated for 24 hrs by crystal violet staining based analysis relative to control; format: functional
# Staphylococcus aureus [18] = test: Resistance fold, ratio of MIC for Staphylococcus aureus ATCC 25923 measured after 20 passages to MIC for Staphylococcus aureus ATCC 25923 measured immediately; format: functional
# Pseudomonas aeruginosa [19] = test: Antimicrobial activity against gentamicin-resistant Pseudomonas aeruginosa ATCC 27853 assessed as inhibition of visible bacterial growth incubated for 18 hrs by broth microdilution method; format: functional
# Staphylococcus aureus [20] = test: Synergistic antimicrobial activity against gentamicin-resistant Staphylococcus aureus ATCC 25923 assessed as fractional inhibitory concentration index incubated for 18 hrs in presence of gentamicin by checkerboard microdilution method; format: functional
# Pseudomonas aeruginosa [21] = test: Bactericidal activity against Pseudomonas aeruginosa ATCC 27853 assessed as bacterial killing at 1 to 4 times of MIC by time-kill kinetics assay; format: functional, organism-based; conditions: time <= 360.0 min
# Staphylococcus aureus [22] = test: Bactericidal activity against Staphylococcus aureus ATCC 25923 assessed as bacterial killing at 1 to 4 times of MIC by time-kill kinetics assay; format: functional, organism-based; conditions: time <= 360.0 min
# Pseudomonas aeruginosa [23] = test: Bactericidal activity against Pseudomonas aeruginosa ATCC 27853 assessed as bacterial killing measured upto 360 mins by time-kill kinetics assay; format: functional, organism-based
# Staphylococcus aureus [24] = test: Bactericidal activity against Staphylococcus aureus ATCC 25923 assessed as bacterial killing measured upto 360 mins by time-kill kinetics assay; format: functional, organism-based
# Staphylococcus aureus [25] = test: Bactericidal activity against Staphylococcus aureus ATCC 25923 assessed as bacterial eradication at 1 times of MIC measured within 90 mins by time-kill kinetics assay; format: functional, organism-based
# Staphylococcus aureus [26] = test: Bactericidal activity against Staphylococcus aureus ATCC 25923 assessed as bacterial eradication at 2 times of MIC measured after 90 mins by time-kill kinetics assay; format: functional, organism-based
# Pseudomonas aeruginosa [27] = test: Induction of morphological changes in Pseudomonas aeruginosa ATCC 27853 assessed as membrane disruption at 2 times of MIC incubated for 30 to 120 mins by SEM analysis; format: functional, organism-based; conditions: time 30-120 min
# Cell membrane = test: Disruption of membrane integrity in Staphylococcus aureus ATCC 25923 at 2 times of MIC incubated for 30 to 120 mins by SEM analysis; format: subcellular; conditions: time 30-120 min
# [28] = Toxicity in male Balb/c mouse assessed as mortality at 80 mg/kg, ip measured after 7 days relative to control; format: organism-based; conditions: in vivo, time 7 day
# [29] = Toxicity in male Balb/c mouse assessed as lethal dose administered intraperitoneally for 7 days; conditions: in vivo, route ip, time 7 day
# Klebsiella pneumoniae [30] = test: Antibacterial activity against Klebsiella pneumoniae ATCC 700603 infected in male Balb/c mouse model of pneumonia assessed as decrease in bacterial load in lung at 2.5 to 10 mg/kg, ip administered at 4 and 12 hrs post-infected and measured after 24 hrs by agar plate method; format: functional, organism-based; conditions: dose 2.5-10 mg/kg, time 20.0 hrs
# Klebsiella pneumoniae [31] = test: Antibacterial activity against Klebsiella pneumoniae ATCC 700603 infected in male Balb/c mouse model of pneumonia assessed as decrease in inflammatory cell infiltration in […] at 2.5 mg/kg, ip administered at 4 and 12 hrs post-infected and measured after 24 hrs by H and E staining based analysis; format: functional, organism-based; conditions: time 20.0 hrs
# Klebsiella pneumoniae [32] = test: Antibacterial activity against Klebsiella pneumoniae ATCC 700603 infected in male Balb/c mouse model of pneumonia assessed as increase in alveoli expansion in lung at 2.5 mg/kg, ip administered at 4 and 12 hrs post-infected and measured after 24 hrs by H and E staining based analysis; format: functional, organism-based; conditions: time 20.0 hrs
# Staphylococcus aureus [33] = test: (§1) Antibacterial activity against methicillin-resistant Staphylococcus aureus ATCC 33591 infected in male Balb/c mouse model of full thickness skin wound assessed as reduction in bacterial load in skin at 1 mg/ml pre-infected with bacteria for 1 hrs followed by compound administration at 1,24,48 and 72 hrs post infection and measured 60 hrs post infection by agar plate method; format: functional, organism-based; conditions: time 59.0 hrs
# Staphylococcus aureus [34] = test: as §1, with “decrease” for “reduction”, “cell necrosis” for “bacterial load”, “1,12” for “1,24,48”, “36” for “72”, “after 10 days” for “60 hrs post infection”, “H and E staining based analysis” for “agar plate method”; format: functional, organism-based; conditions: time 10.0 day
substance,measurement,setting,value
H-RRWFRRWRRWFR-NH2,MIC,Bacillus subtilis,1 µM
same,EC90,Staphylococcus aureus [1],2780 nM
same,EC90,Staphylococcus aureus [2],2430 nM
same,EC90,Escherichia coli [3],5080 nM
same,EC90,Escherichia coli [4],5420 nM
same,EC90,Pseudomonas aeruginosa [5],574 nM
same,EC90,Pseudomonas aeruginosa [6],780 nM
same,Activity,Staphylococcus aureus [7],Active
same,Activity,Staphylococcus aureus [8],inactive
same,Activity,Staphylococcus aureus [9],inactive
same,fold change (FC),Staphylococcus aureus [10],2
same,Activity,Staphylococcus aureus [11],Active
same,Activity,Staphylococcus aureus [12],Active
same,fold change (FC),Staphylococcus aureus [13],32
same,fold change (FC),Staphylococcus aureus [14],128
same,Activity,Staphylococcus aureus [15],inactive
same,inhibition (INH),Pseudomonas aeruginosa [16],>90%
same,inhibition (INH),Staphylococcus aureus [17],~50%
same,fold change (FC),Staphylococcus aureus [18],<=2
same,MIC,Pseudomonas aeruginosa [19],2 µM
same,fractional inhibitory concentration index (FICI),Staphylococcus aureus [20],0.25
same,Activity,Pseudomonas aeruginosa [21],Time-dependent-effect
same,Activity,Staphylococcus aureus [22],Time-dependent-effect
same,Activity,Pseudomonas aeruginosa [23],Dose-dependent-effect
same,Activity,Staphylococcus aureus [24],Dose-dependent-effect
same,Activity,Staphylococcus aureus [25],Active
same,Activity,Staphylococcus aureus [26],Active
same,Activity,Pseudomonas aeruginosa [27],Active
same,Activity,Cell membrane,Active
same,mortality at 168 h,[28],25%
same,LD50 at 168 h,[29],89.9 mg/kg
same,Activity,Klebsiella pneumoniae [30],Active
same,Activity,Klebsiella pneumoniae [31],Active
same,Activity,Klebsiella pneumoniae [32],Active
same,Activity,Staphylococcus aureus [33],Active
same,Activity,Staphylococcus aureus [34],Active
